Earlier results in paper PMC7199283 (Antiviral research, 2020).

Test system: HBV
Conditions: ref Hu et al., 2013

CC(C)c1ccc(O)c(=O)c(O)c1 [β-thujaplicinol]
accumulation of RNA:DNA heteroduplexes within HBV capsids: dose-dependent accumulation of RNA:DNA heteroduplexes
